Measurements reported in patent publication US9809604B2, “DGAT1 inhibitor and preparation method and use thereof” (Qingdao Huanghai Pharmaceutical Co., Ltd., priority 2013, dated 2017).
In brackets after ≈: the same amount, converted by molar mass. Where two headings read alike, the source gives them in different places.

Legend:
DGAT1 [1] = target: T1, DGAT1 (Homo sapiens, UniProt O75907); experiment: In vitro assay in HEK-293 cells (13C-labeled oleic acid incorporation into TG, LC/MS/MS); assay type: cell-based; design: endogenous DGAT1-expressing catalytic ^13C-labeled oleic acid incorporate to TG; endogenous in cells; host or cells: HEK293; conditions: HEK293 cells
T1 sequence (O75907 1-488): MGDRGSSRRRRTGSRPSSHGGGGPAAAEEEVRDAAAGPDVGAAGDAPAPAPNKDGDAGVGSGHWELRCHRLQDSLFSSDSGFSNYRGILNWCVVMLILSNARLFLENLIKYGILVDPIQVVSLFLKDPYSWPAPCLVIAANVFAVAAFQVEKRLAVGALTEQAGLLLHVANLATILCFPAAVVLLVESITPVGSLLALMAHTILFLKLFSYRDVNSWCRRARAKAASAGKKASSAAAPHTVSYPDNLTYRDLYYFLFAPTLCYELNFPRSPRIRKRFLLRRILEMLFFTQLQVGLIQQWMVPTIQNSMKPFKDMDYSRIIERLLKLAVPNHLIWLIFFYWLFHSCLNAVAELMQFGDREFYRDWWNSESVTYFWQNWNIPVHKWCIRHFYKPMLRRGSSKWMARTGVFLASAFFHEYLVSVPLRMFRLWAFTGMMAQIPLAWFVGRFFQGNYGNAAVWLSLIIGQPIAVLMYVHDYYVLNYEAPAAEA
Text: In Vitro Assay in HEK-293 Cells:
We treated HEK293 cells with stable isotope ^13C-labeled oleic acid and endogenous DGAT1-expressing catalytic ^13C-labeled oleic acid incorporate to TG. The extraction and separation of cell suspension is to obtain the triglycerides composition. A LC/MS/MS method is used to measure the concentration of ^13C in TG to determine catalytic reaction rate of DGAT1, then determine the compound of DGAT1 inhibition (IC50).

[2] = Plasma pharmacokinetics in male SD rats; assay type: in vivo; conditions: rat
Procedure: (3) Pharmacokinetics of Test Compounds
The purpose of this study is to determine the plasma pharmacokinetics of male SD rats. Two animals will receive a solution of test article in vehicle by single intravenous bolus via tail vein; the dosage is 2 mg/kg. Blood samples are taken at specified time points (0, 0.0833, 0.25, 0.5, 1, 2, 4, 7, 24 h) after dosing. Another two animals will receive a solution or suspension of TA in vehicle by oral gavage at 10 mg/kg. The schedule for sample collection is 0.5, 1, 2, 3, 4, 6, 24 h after dosing. A LC/MS/MS method is used to measure the concentration of test compound in plasma. Non-compartmental pharmacokinetic analysis is performed on the plasma concentration-time data. PK parameters of calculations are done using Phoenix WinNonlin. 6.2.1 software program.

mouse DGAT1 = target: T2, mouse DGAT1 (Mus musculus, UniProt Q9Z2A7); experiment: Mouse DGAT1 IC50 enzymatic assay; assay type: biochemical
T2 construct: made in house
T2 sequence (Q9Z2A7 1-498): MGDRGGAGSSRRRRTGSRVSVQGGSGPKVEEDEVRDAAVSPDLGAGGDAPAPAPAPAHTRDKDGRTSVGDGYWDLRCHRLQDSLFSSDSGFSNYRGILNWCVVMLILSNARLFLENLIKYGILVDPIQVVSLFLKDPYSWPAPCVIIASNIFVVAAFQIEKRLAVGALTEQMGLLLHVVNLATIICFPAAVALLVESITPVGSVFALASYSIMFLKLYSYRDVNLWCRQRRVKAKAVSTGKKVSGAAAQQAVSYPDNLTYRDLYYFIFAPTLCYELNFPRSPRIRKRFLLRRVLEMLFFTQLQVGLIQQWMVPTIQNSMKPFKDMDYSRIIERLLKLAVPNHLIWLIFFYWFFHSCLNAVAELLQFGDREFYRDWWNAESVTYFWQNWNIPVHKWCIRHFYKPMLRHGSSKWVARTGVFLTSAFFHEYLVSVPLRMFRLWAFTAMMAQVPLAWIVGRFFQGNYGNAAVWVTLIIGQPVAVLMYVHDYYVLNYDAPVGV
Procedure: Expressing human DGAT1 enzyme, used diacylglycerol and 14C-labeled acyl-CoA as the substrate, choose PE Company Flashplate testing board to build DGAT1 enzyme reaction system. 14C-labeled acyl-CoA binds to diacylglycerol by covalent bonding after enzymology reaction, and generates the product of 14C-labeled triglyceride. 14C-labeled acyl-CoA substrate is dissolved in reaction solution and 14C-labeled triglyceride product combine with phospholipids of Flashplate plate bottom layer, thus effectively separate labeled substrates and products. The radioactive of 14C-labeled triglyceride which is combined with phospholipid layer is counted, and the potencies of DGAT-1 inhibition for the compounds are determined by calculating the IC50 values.
Mouse DGAT1 activity was determined as follows:
Mouse DGAT1 IC50 determination method: in addition to expression of mouse DGAT1, experiment method with human DGAT1 enzymatic assay is the same.

Solubility at pH 7.4 = assay type: physicochemical; conditions: pH 7.4, aqueous buffer; read-out: Sol pH 7.4
[3] = Diet induced obesity in mice; assay type: in vivo; conditions: DIO mice, 10mpk BID, 7 days
Procedure: (2) Diet Induced Obesity in Mice
Male C57bl/6J mice (6 weeks) were individually housed in hanging wire cages at 20-25° C. with a 12:12 hour light:dark cycle (Humidity: 40˜70%). After one week acclimation, the mice are fed with high fat pelleted diet (D12492i, Research Diets, Inc) and fresh water, ad libitum. Typically; C57BL/6J male mice become obese, and reach 40-50 g after 12-14 weeks of high fat diet treatment.
Animals accept oral gavages acclimation for two weeks. Then next, they are dosed with test articles or vehicle (bid) accordingly for 7 day. Food intake and body weight are recorded every day. Data are graphed by Graph Pad Prism 5.0 and evaluated using SPSS, p<0.05 is considered to be statistically significant.

[4] = system: plasma triacylglycerol levels; experiment: Lipid tolerance test in mice; assay type: in vivo
Procedure: (1) Lipid Tolerance Test in Mice:
CDI mice (30 g or so) were individually housed in hanging wire cages at 20-25° C. with a 12:12 hour light:dark cycle (Humidity: 40˜70%). The mice had ad libitum access to water. On the day of experimentation, food jars were removed from each cage 16 hours prior to rate received either vehicle or test article based on a randomization plan generated by randomization. After sixty minutes, oral administration (gavage) of corn oil at a dose volume of 6 mL/kg (time=0). Blood samples were obtained from each mouse via tail snip procedure at −0.5, 0.5, 1, 2 and 4 hours. 20 ul of blood sampling will be rapidly collected, and then is centrifuged at 7000 rpm for 10 min to determine plasma triacylglycerol levels. Triglyceride was quantitated using TG ELISA kit. All data will be analyzed using SPSS. p<0.05 is considered to be statistically significant.

DGAT1 [5] = target: T1, DGAT1; experiment: Human DGAT1 IC50 enzyme assay (Flashplate, 14C-labeled acyl-CoA); assay type: biochemical; design: made in house
In short: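 Radiometric Flashplate format: expressed human DGAT1 transfers 14C-acyl from acyl-CoA onto diacylglycerol, and labeled triglyceride binding the plate's phospholipid layer is counted. Potency reported as IC50; Ki calculated as IC50/(1+[S]/Km).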

Compound: Cc1cc(N2CCOc3ncnc(N)c3C2=O)cc(C)c1-c1cn(CC(F)(F)F)nc1C [Compound 41, 4-amino-6-(3,5-dimethyl-4-(3-methyl-1-(2,2,2-trifluoroethyl)-1H-pyrazol-4-yl)phenyl)-7,8-dihydropyrimido[5,4-f][1,4]oxazepin-5(6H)-one]
- EC50 (DGAT1 [1]): 22.1 nM
- AUC(0-t) ([2]; male, SD, plasma, iv, 1.78-2.06 mg/kg as printed in each cell, read-out: AUC0-1 (ng · n/mL)): 2120 ng·h/mL
- half-life ([2]; male, SD, plasma, po, 8.94-9.33 mg/kg, read-out: T1/2 (b) (converted)): 3.2 h
- Vd ([2]; male, SD, plasma, intravenous, 2 mg/kg, read-out: Vdss): 1.49 L/kg
- bioavailability ([2]; male, SD, plasma, oral, 10 mg/kg): ~100%
- CI [2]: 14.4 mL/min/kg
- IC50 (mouse DGAT1): 12.5 nM
- solubility (Solubility at pH 7.4): 187 µM (≈ 83.5 µg/mL)
- 7 days Cumulative Body Weight Change (%) [3]: −3.32%
- 7 days Cumulative Food Intake Change (%) [3]: −16.35%
- Inhibtion % @ 2 h 1 MPK PO [4]: 83% inh
- IC50 (DGAT1 [5]; average of first and second, read-out: hDGAT1 IC50(nM) Average): 31.3 nM
- IC50 (DGAT1 [5]; first determination, read-out: hDGAT1 IC50(nM) First): 37.7 nM
- IC50 (DGAT1 [5]; second determination, read-out: hDGAT1 IC50(nM) Second): 30 nM
